These results are taken from patent US12350270B2, “Antimalarial agents” (Merck Sharp & Dohme LLC, priority 2019, dated 2025).

A word on the EC50: it is the concentration at which the effect is half-maximal. A high value points to a need for much substance.

The subject of the first assay is parasites (ring stage, in human red blood cell culture). Put plainly: Parasite LDH growth assay (antiparasite potency, Parasite Assay). Type of assay: cell-based, Plasmodium falciparum. Particulars: 0.7% rings, 2% haematocrit, 72 hours at 37° C., LDH readout of parasite growth. Put shortly:
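Growth was read by an LDH assay after a freeze–thaw cycle (−80 °C overnight, 4 h thaw at RT). Before that, parasites grew with compound for 72 h at 37 °C under gassed, humidified conditions. The input was a ring-stage culture adjusted to 0.7% parasitemia and 2% haematocrit in serum (5%)/albumax (0.5%)-supplemented RPMI-Hepes.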
With `CCC1(CC)CC(=O)N([C@H]2c3cc(C(=O)NC4c5ccccc5CC4(C)O)ccc3OC2(C)COC)C(=N)N1` (stereo partly drawn) [Example 76B, (2S,3S)-3-(4,4-diethyl-2-imino-6-oxotetrahydropyrimidin-1(2H)-yl)-N-(2-hydroxy-2-methyl-2,3-dihydro-1H-inden-1-yl)-2-(methoxymethyl)-2-methyl-2,3-dihydrobenzofuran-5-carboxamide], the response was half-maximal at 1.1 nM (EC50).

Still in this assay, the particulars now being: Plasmodium falciparum, Erythrocyte, 72 h, 0.7% rings, 2% haematocrit, 72 hours at 37° C., LDH readout of parasite growth.
For `CCC1(CC)CC(=O)N([C@@H]2CCS(=O)(=O)c3ccc(C(=O)N[C@@H]4c5ccccc5C[C@]4(C)O)cc32)C(=N)N1` [Example 262, (4R)-4-(4,4-diethyl-2-imino-6-oxo-hexahydropyrimidin-1-yl)-N-[(1R,2S)-2-hydroxy-2-methyl-indan-1-yl]-1,1-dioxo-3,4-dihydro-2H-thiochromene-6-carboxamide], the midpoint of the response, the EC50, lay at 7.4 nM. That is a single-digit nanomolar value.
As for `CCC1(CC)CC(=O)N(C2Cc3ccc(C(=O)N[C@@H]4c5ccccc5OC[C@@]4(C)O)cc32)C(=N)N1` (stereo partly drawn) [Example 105, 8-(4,4-diethyl-2-imino-6-oxo-hexahydropyrimidin-1-yl)-N-[(3S,4R)-3-hydroxy-3-methyl-chroman-4-yl]bicyclo[4.2.0]octa-1(6),2,4-triene-3-carboxamide], the EC50 is 8.8 nM. The EC50 values of the last two compounds are within 1.5-fold of each other.
`CCC1(CC)CC(=O)N(C2CCOc3ccc(C(=O)N[C@H]4CC(C)(C)Oc5ccccc54)cc32)C(=N)N1` (stereo partly drawn) [Example 1A, 4-(4,4-diethyl-2-imino-6-oxotetrahydropyrimidin-1(2H)-yl)-N—((S)-2,2-dimethylchroman-4-yl)chroman-6-carboxamide] displayed an EC50 of 0.5 nM.
The same measure, in the same setting: under `COCC1(C)Oc2ccc(C(=O)N[C@@H]3c4ccccc4C[C@]3(C)O)cc2C1N1C(=N)NC(C)(C)CC1=O` (stereo partly drawn) [Example 183, N-[(1R,2S)-2-hydroxy-2-methyl-indan-1-yl]-3-(2-imino-4,4-dimethyl-6-oxo-hexahydropyrimidin-1-yl)-2-(methoxymethyl)-2-methyl-3H-benzofuran-5-carboxamide] stands 71.4 nM; under `CCC1(CC)CC(=O)N([C@@H]2CCOc3ccc(C(=O)NC(CO)c4ccccc4OC)cc32)C(=N)N1` (stereo partly drawn) [Example 150, (4R)-4-(4,4-diethyl-2-imino-6-oxo-hexahydropyrimidin-1-yl)-N-[2-hydroxy-1-(2-methoxyphenyl)ethyl]chromane-6-carboxamide], 49 nM.
The same measure, in the same setting: under `CCC1(CC)CC(=O)N([C@@H]2CCOc3ccc(C(=O)N[C@@H]4c5cc(Cl)ccc5OC[C@@]4(C)O)cc32)C(=N)N1` [Example 266, (4R)-N-[(3S,4R)-6-chloro-3-hydroxy-3-methyl-chroman-4-yl]-4-(4,4-diethyl-2-imino-6-oxo-hexahydropyrimidin-1-yl)chromane-6-carboxamide] stands 2.6 nM; under `CCC1(CC)C[C@@H](N2C(=N)NC(C)(C)CC2=O)c2cc(C(=O)N[C@@H]3c4cc(F)ccc4OC(C)(C)[C@H]3O)ccc2O1` [Example 59B, (R)-2,2-diethyl-N-((3S,4R)-6-fluoro-3-hydroxy-2,2-dimethylchroman-4-yl)-4-(2-imino-4,4-dimethyl-6-oxotetrahydropyrimidin-1(2H)-yl)chromane-6-carboxamide], 1.6 nM.
The compound `CCC1(CC)CC(=O)N([C@@H]2CCOc3ccc(C(=O)N[C@H]4CC(C)(C)Oc5ccccc54)nc32)C(=N)N1` [Example 31B, (R)-4-(4,4-diethyl-2-imino-6-oxotetrahydropyrimidin-1(2H)-yl)-N-((S)-2,2-dimethylchroman-4-yl)-3,4-dihydro-2H-pyrano[3,2-b]pyridine-6-carboxamide] showed an EC50 of 1 nM. Compared with the last compound, the EC50 is about 1.6-fold lower.
The compound `CCC1(CC)CC(=O)N([C@@H]2CCOc3ccc(C(=O)N[C@H]4CC(C)(C)Oc5ccc(Br)cc54)cc32)C(=N)N1` [Example 14A, (R)-N-((S)-6-bromo-2,2-dimethylchroman-4-yl)-4-(4,4-diethyl-2-imino-6-oxotetrahydropyrimidin-1(2H)-yl)chromane-6-carboxamide] had an EC50 of 1 nM.
